Laboratory results reported in patent publication US20240393319A1, “FLUORESCENT SENSORS AND METHODS OF MAKING AND USING” (Howard Hughes Medical Institute, priority 2023, published 2024).

Legend:
[1] = biological target: T1, iATPSnFR2 (L1-VLVG, L2-ICV, A95A, A119L; cpSFGFP inserted in epsilon subunit of Bacillus subtilis PS3 F0-F1 ATPase; SEQ ID NO: 1 / SEQ ID NO: 13) (Bacillus sp. PS3, UniProt P07678); assay: Fluorescence response to ATP; type: biochemical
T1 construct: QD to VL at junction, L1-VLVG, L2-ICV; E. coli BL21(DE3)pLysS, Ni-NTA; HaloTag-JFX650 fusion possible
Method: (grey) and 37° C. (black). Error bars are s.d. of three technical replicates. Fluorescence was measured in a Cytation 5 plate reader, which has relatively rapid heating.

MaLion = settings: cited from earlier work
HaloTag-JF635 = assay: Titration of HaloTag-JF635 with ATP; type: biochemical; settings: FIG. 8B
[2] = test system: iATPSnFR2.HaloTag-JFX650, three variants S29W.A95K, A95K and A95A.A119L; assay: Stopped-flow kinetics of ATP binding; type: biochemical, Bacillus subtilis PS3; settings: ATP 123-10000 μM
Method: Panels are the sensor with a C-terminal fusion to HaloTag-JFX650. […] Fluorescence data collected on an Applied Photophysics SX-20 stopped-flow apparatus with 490 nm LED excitation and 525 nm long pass filter. Data points are average of 5 technical replicates.
Final concentration of protein was thus 0.1 μM.

[3] = biological target: T2, iATPSnFR2.S29W.A95K.HaloTag-JFX650 (L1-VLVG, L2-ICV); cpSFGFP inserted in epsilon subunit of Bacillus subtilis PS3 F0-F1 ATPase; mutations A95K, S29W; SEQ ID NO: (Bacillus sp., UniProt P07678, A95K/DELINS96-108[…]/F67N/L78Y/N74K/S29W/V42K); assay: ATP/nucleotide titration, binding curve fits; settings: stopped flow
T2 construct: polyhistidine tag (bacterial expression vector); made in house; host or cells: E. coli BL21 (DE3) pLysS
Text: (§1) (1A) Artistic rendering of iATPSnFR2.HaloTag made with PyMol. The N-terminal fragment (residues 1-109) of the epsilon subunit of ATPase (orange, based on 2E5Y.PDB) is fused to cpSFGFP (green). The C-terminus of cpSFGFP is fused to the residual ATP-binding helix (residues 110-129) of the epsilon subunit (pink), which itself is fused to HaloTag (cyan). “Linkers” are shown as sticks in yellow. […] HaloTag fluorophore is shown as sticks in red. […] (1C-1E) Ratio of green (iATPSnFR2) to red (HaloTag-JFX650) fluorescence in fibroblasts transfected with three affinity variants of iATPSnFR2-HaloTag. […] Cells were incubated for 21 minutes in buffer containing 10 mM glucose, and then switched to buffer containing 10 mM 2-deoxyglucose. (1C) Rho° cells. (1D) Parental LMTK cell line. (1E) Parental cell line treated with both 2-deoxyglucose and oligomycin.
(§2) ATP (black), CTP (cyan), GTP (grey), TTP (purple).
(§3) Purified protein was mixed with 1.1 molar equivalents of JFX650 HaloTag Ligand and incubated at room temperature for 1 hour and then at 4° C. overnight. Excess HaloTag Ligand was removed by gel filtration on a PD-10 column (GE Life Sciences) and re-concentrated by ultrafiltration.

[4] = biological target: T3, iATPSnFR2.A95K.HaloTag-JFX650 (L1-VLVG, L2-ICV); cpSFGFP inserted in epsilon subunit of Bacillus subtilis PS3 F0-F1 ATPase; mutation A95K; SEQ ID NO: 5, without (Bacillus sp., UniProt P07678, A95K/DELINS96-108[…]/F67N/L78Y/N74K/V42K); assay: ATP/nucleotide titration, binding curve fits; settings: stopped flow
T3 construct: polyhistidine tag (bacterial expression vector); made in house; host or cells: E. coli BL21 (DE3) pLysS
Text: as §1, §2, §3

ChemoG-ATPSiR = settings: read-out: affinity for ATP; cited from earlier work

T1 sequence (P07678 whole entry, stated change not applied, the tested form may be a part): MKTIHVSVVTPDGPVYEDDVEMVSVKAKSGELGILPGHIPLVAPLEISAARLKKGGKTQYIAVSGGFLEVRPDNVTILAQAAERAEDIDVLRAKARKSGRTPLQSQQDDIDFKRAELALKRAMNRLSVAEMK
T2 sequence (P07678 other isoform, or with tags, fused parts or gaps S29W/V42K/F67N/N74K/L78Y): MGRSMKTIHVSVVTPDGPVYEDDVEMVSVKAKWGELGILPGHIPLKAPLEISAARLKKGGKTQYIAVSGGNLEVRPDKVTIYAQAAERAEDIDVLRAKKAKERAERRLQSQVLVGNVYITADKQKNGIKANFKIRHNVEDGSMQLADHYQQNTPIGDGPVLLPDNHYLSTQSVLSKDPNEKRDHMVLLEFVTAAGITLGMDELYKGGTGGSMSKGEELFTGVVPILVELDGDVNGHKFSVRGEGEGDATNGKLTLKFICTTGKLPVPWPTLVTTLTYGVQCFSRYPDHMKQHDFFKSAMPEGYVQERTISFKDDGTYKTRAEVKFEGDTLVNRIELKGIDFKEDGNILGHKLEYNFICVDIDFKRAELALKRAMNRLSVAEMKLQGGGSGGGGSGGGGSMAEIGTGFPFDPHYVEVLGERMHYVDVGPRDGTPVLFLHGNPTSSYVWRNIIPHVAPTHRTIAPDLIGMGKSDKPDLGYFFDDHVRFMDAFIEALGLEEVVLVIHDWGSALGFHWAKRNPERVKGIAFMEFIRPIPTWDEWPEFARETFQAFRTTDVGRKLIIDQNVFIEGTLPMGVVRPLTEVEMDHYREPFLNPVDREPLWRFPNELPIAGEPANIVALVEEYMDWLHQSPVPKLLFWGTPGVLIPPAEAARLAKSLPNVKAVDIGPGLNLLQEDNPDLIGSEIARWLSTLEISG
T3 sequence (P07678 other isoform, or with tags, fused parts or gaps V42K/F67N/N74K/L78Y): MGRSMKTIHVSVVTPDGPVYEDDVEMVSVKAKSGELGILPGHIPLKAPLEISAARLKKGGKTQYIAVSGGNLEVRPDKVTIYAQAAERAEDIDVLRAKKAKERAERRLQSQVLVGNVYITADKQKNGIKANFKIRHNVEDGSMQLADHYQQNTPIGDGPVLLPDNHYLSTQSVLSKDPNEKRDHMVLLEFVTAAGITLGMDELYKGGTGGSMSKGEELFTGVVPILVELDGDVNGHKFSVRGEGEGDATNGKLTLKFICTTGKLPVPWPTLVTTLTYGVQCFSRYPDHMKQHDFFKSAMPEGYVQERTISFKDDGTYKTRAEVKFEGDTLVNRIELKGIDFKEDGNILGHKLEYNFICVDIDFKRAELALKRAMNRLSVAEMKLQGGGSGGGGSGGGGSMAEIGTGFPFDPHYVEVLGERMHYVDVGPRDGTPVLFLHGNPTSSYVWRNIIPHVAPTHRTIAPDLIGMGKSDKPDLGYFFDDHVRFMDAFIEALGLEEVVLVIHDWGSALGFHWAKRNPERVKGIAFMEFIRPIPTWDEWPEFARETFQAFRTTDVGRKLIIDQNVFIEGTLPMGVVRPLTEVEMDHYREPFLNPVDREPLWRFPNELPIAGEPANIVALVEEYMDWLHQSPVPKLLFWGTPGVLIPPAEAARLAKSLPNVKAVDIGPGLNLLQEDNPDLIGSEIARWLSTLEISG

Compound: Nc1ncnc2c1ncn2[C@@H]1O[C@H](COP(=O)(O)OP(=O)(O)OP(=O)(O)O)[C@@H](O)[C@H]1O [ATP]
- ΔF/F in response to saturating ATP [1]: ~12
- increase in fluorescence upon saturation with ATP (MaLion): ~5 fold
- sensitivity to ATP (HaloTag-JF635): sensitive to ATP, albeit with low ΔF/F
- time to bind ATP [2]: within a one or two seconds
- rate of ATP binding compared with A95A.A119L [3]: bind ATP faster than the A95A.A119L variant
- rate of ATP binding compared with A95A.A119L [4]: bind ATP faster than the A95A.A119L variant
- Kd (ChemoG-ATPSiR): ~2000 µM
